According to patent US10660877B2 (BRISTOL-MYERS SQUIBB COMPANY, priority 2016, dated 2020):
Read-outs that look alike come from different tables or passages of the source.

How the values were obtained:
[1] = target: human TLR7 (Homo sapiens (Human), UniProt Q9NYK1); test: TLR7 inhibition reporter assay (HEK-Blue cells, SEAP reporter, gardiquimod stimulation); assay type: cell-based
[2] = target: human TLR8 (Homo sapiens (Human), UniProt Q9NR97); test: TLR8 inhibition reporter assay (HEK-Blue cells, SEAP reporter, R848 stimulation);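 note: compounds tested from 0.05 nM to 50 µM, 22 h at 37 °C, SEAP measured with HEK-Blue Detection, inhibition relative to agonist plus DMSO versus a known inhibitor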
Chain of human TLR8 (Q9NR97 27-1041): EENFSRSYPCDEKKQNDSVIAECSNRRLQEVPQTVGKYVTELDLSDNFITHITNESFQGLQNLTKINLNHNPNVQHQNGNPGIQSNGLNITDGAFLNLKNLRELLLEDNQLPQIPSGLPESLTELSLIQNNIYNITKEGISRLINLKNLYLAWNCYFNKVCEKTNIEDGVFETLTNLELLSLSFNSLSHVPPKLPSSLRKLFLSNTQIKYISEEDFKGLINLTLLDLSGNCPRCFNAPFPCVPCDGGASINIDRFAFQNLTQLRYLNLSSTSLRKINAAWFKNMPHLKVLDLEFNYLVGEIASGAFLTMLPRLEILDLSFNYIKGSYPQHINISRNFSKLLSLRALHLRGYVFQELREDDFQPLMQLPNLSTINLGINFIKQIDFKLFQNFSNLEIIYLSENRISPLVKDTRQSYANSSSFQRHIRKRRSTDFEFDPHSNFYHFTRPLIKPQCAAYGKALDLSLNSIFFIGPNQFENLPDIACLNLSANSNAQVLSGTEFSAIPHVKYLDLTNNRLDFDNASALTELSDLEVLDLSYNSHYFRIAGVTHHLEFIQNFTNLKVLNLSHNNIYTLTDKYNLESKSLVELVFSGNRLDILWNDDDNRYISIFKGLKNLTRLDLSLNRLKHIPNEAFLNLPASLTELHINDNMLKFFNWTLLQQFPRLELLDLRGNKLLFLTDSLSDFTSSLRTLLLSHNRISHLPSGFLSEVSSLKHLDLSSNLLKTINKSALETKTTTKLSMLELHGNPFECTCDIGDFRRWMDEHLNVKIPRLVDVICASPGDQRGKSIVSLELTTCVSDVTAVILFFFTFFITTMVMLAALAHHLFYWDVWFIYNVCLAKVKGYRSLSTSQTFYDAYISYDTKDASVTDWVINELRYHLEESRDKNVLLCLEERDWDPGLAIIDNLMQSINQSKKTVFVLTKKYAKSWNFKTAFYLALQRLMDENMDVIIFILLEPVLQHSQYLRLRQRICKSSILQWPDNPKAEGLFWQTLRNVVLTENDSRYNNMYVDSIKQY

[3] = target: human TLR9 (Homo sapiens (Human), UniProt Q9NR96); test: TLR9 inhibition reporter assay (HEK-Blue cells, SEAP reporter, ODN2006 stimulation);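 note: compounds tested over 0.05 nM to 50 µM, 22 h incubation, inhibition taken as SEAP signal drop from agonist plus DMSO wells toward a known inhibitor control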
Chain of human TLR9 (Q9NR96 26-1032): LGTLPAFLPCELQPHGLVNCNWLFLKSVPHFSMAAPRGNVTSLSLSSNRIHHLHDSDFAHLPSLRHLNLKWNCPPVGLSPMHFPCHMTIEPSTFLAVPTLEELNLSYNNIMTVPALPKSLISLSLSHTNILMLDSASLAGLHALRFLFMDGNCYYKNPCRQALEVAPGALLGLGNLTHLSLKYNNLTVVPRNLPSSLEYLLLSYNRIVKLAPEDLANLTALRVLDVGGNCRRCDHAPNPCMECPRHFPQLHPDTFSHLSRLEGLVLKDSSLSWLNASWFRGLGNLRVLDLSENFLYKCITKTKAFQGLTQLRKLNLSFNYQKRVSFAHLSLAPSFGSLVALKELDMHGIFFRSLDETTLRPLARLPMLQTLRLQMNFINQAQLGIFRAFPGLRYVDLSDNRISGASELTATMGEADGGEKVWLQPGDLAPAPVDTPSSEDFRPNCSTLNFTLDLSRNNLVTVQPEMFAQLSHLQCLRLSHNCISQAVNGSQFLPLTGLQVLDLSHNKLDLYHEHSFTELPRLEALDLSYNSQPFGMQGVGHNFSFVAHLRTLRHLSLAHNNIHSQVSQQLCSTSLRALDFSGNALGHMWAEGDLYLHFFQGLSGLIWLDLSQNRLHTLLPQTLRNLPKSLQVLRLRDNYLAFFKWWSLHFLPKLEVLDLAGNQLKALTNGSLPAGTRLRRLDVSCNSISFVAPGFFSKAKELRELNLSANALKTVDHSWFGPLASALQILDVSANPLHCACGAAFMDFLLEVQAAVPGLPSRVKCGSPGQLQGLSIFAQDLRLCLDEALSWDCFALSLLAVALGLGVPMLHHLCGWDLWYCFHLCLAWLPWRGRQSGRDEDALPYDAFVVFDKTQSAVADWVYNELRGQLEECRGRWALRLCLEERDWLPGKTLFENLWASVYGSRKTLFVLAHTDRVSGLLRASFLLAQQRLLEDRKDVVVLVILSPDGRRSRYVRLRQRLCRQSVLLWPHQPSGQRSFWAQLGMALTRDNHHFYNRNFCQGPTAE

[4] = HEK-Blue cells overexpressing human TLR7, gardiquimod 7.5 μM
[5] = read-out: TLR8 IC50, HEK-Blue cells overexpressing human TLR8, R848 15.9 μM
[6] = read-out: TLR9 IC50, HEK-Blue cells overexpressing human TLR9, ODN2006 5 nM
[7] = TLR8 IC50, HEK-Blue cells overexpressing human TLR8, R848 15.9 μM
[8] = TLR9 IC50, HEK-Blue cells overexpressing human TLR9, ODN2006 5 nM
[9] = HEK-Blue cells, gardiquimod 7.5 μM
[10] = read-out: TLR8 IC50, HEK-Blue cells, R848 15.9 μM

Chain of human TLR7 (Q9NYK1 27-1049): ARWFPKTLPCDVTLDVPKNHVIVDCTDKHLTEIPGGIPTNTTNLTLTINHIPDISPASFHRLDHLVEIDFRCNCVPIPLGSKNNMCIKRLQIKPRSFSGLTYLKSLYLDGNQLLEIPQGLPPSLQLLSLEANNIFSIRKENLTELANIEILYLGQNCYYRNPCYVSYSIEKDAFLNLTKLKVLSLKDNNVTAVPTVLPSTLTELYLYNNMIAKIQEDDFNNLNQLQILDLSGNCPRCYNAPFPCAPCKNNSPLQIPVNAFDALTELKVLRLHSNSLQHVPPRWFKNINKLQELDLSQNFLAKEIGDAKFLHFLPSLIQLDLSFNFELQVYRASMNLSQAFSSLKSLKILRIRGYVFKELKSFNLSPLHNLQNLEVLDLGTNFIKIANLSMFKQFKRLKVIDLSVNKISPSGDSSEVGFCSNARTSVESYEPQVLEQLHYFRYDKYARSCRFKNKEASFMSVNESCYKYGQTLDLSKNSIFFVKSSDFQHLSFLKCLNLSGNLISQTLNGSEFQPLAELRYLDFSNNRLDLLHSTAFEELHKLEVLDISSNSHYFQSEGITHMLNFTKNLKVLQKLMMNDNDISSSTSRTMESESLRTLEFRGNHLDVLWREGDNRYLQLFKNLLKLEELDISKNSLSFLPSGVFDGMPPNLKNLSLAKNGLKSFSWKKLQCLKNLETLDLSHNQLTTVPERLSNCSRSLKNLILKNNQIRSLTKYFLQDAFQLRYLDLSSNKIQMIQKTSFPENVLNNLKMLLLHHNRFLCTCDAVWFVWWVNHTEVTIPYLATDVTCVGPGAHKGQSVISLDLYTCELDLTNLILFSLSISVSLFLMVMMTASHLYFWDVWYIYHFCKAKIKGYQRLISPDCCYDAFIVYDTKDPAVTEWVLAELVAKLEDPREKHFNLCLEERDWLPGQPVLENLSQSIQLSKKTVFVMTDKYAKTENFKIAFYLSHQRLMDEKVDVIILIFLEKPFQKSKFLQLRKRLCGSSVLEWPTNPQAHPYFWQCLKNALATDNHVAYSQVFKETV

Q: For Cc1cc(-c2[nH]c3ccc(C4CCN(C(=O)CNCC(C)C)CC4)cc3c2C(C)C)cc(C)n1 [Example 338, 1-(4-(2-(2,6-dimethylpyridin-4-yl)-3-isopropyl-1H-indol-5-yl)piperidin-1-yl)-2-(isobutylamino)ethan-1-one], which IC50 [1, 4] is on record?
A: 0.0058 µM

Q: And the IC50 [2, 5]?
A: 0.0235 µM

Q: And the IC50 [3, 6]?
A: 0.553 µM

Q: Which IC50 [1, 4] does the source give for Cc1cc(-c2[nH]c3ccc(C4CCN(Cc5ncn(C)n5)CC4)cc3c2C(C)C)c(F)cn1 [Example 724, 2-(5-fluoro-2-methylpyridin-4-yl)-3-isopropyl-5-(1-((1-methyl-1H-1,2,4-triazol-3-yl)methyl)piperidin-4-yl)-1H-indole] here?
A: 0.0138 µM

Q: What about the IC50 [2, 5] of the same molecule?
A: 0.0096 µM

Q: Which IC50 [2, 7] does the source give for Cc1cc(-c2[nH]c3ccc(C4CCN(CC(=O)N(C)C5CCOCC5)CC4)cc3c2C(C)C)cc(C)n1 [Example 287, 2-(4-(2-(2,6-dimethylpyridin-4-yl)-3-isopropyl-1H-indol-5-yl)piperidin-1-yl)-N-methyl-N-(tetrahydro-2H-pyran-4-yl)acetamide] here?
A: 0.022 µM

Q: What about the IC50 [3, 8] of the same molecule?
A: 0.328 µM

Q: Cc1cc(-c2[nH]c3ccc(C4CCN(C(=O)[C@@]5(C)CCCN5)CC4)cc3c2C(C)C)cc(C)n1 [Example 192, (R)-(4-(2-(2,6-dimethylpyridin-4-yl)-3-isopropyl-1H-indol-5-yl)piperidin-1-yl)(2-methylpyrrolidin-2-yl)methanone] was tested. Which IC50 [2, 5] did it give?
A: 0.0072 µM

Q: What about the IC50 [3, 6] of the same molecule?
A: 0.154 µM

Q: Cc1cc(-c2[nH]c3ccc(C4CCN(C(=O)C5CC(=O)N(C)C5)CC4)cc3c2C(C)C)ccn1 (centres unmarked) [Example 618, 4-(4-(3-isopropyl-2-(2-methylpyridin-4-yl)-1H-indol-5-yl)piperidine-1-carbonyl)-1-methylpyrrolidin-2-one] was tested. Which IC50 [2, 5] did it give?
A: 0.107 µM

Q: And the IC50 [3, 6]?
A: > 50 µM

Q: Which results are given for Cc1cc(-c2[nH]c3ccc(C4CCN(C(=O)C5CCNC5)CC4)cc3c2C(C)C)cc(C)n1 (centres unmarked) [Example 186, (4-(2-(2,6-dimethylpyridin-4-yl)-3-isopropyl-1H-indol-5-yl)piperidin-1-yl)(pyrrolidin-3-yl) methanone]?
A: IC50 [2, 7]: 0.0222 µM; IC50 [3, 8]: 0.516 µM

Q: Which results are given for COCCC(=O)N1CCC(c2ccc3[nH]c(-c4cc(C)nc(C)c4)c(C(C)C)c3c2)CC1 [Example 118, 1-(4-(2-(2,6-dimethylpyridin-4-yl)-3-isopropyl-1H-indol-5-yl)piperidin-1-yl)-3-methoxypropan-1-one]?
A: IC50 [2, 5]: 0.0798 µM; IC50 [3, 6]: > 50 µM

Q: Which results are given for COCCC(=O)N1CCC(c2ccc3[nH]c(-c4ccnc(C)c4)c(C(C)C)c3c2)CC1 [Example 571, 1-(4-(3-isopropyl-2-(2-methylpyridin-4-yl)-1H-indol-5-yl)piperidin-1-yl)-3-methoxypropan-1-one]?
A: IC50 [1, 4]: 0.0793 µM; IC50 [2, 5]: 0.102 µM

Q: With Cc1cc(-c2[nH]c3ccc(C4CCN(C(=O)C[C@H]5CCCN5)CC4)cc3c2C(C)C)cc(C)n1 [Example 193, (R)-1-(4-(2-(2,6-dimethylpyridin-4-yl)-3-isopropyl-1H-indol-5-yl)piperidin-1-yl)-2-(pyrrolidin-2-yl)ethan-1-one] as the molecule, how does the IC50 [2, 5] read?
A: 0.0148 µM

Q: And the IC50 [3, 6]?
A: 0.228 µM

Q: How did the IC50 [2, 5] turn out when Cc1cc(-c2[nH]c3ccc(C4CCN(C(=O)CCn5ccc(C)n5)CC4)cc3c2C(C)C)cc(C)n1 [Example 143, 1-(4-(2-(2,6-dimethylpyridin-4-yl)-3-isopropyl-1H-indol-5-yl)piperidin-1-yl)-3-(3-methyl-1H-pyrazol-1-yl)propan-1-one] was run?
A: 0.172 µM

Q: And the IC50 [3, 6]?
A: 25 µM

Q: For Cc1cc(-c2[nH]c3cc(F)c(C4CCN(C5COC5)CC4)cc3c2C(C)C)cc(C)n1 [Example 834, 2-(2,6-dimethylpyridin-4-yl)-6-fluoro-3-isopropyl-5-(1-(oxetan-3-yl)piperidin-4-yl)-1H-indole], which IC50 [1, 9] is on record?
A: 0.0044 µM

Q: And the IC50 [2, 10]?
A: 0.0238 µM

Q: For Cc1cc(-c2[nH]c3ccc(C4CCN(c5cccnc5)CC4)cc3c2C(C)C)ccn1 [Example 847, 3-isopropyl-2-(2-methylpyridin-4-yl)-5-(1-(pyridin-3-yl)piperidin-4-yl)-1H-indole], which IC50 [1, 9] is on record?
A: 0.0619 µM

Q: And the IC50 [2, 10]?
A: 0.206 µM

Q: Cc1cc(-c2[nH]c3ccc(C4CCN(C(=O)c5ccc(C)n(C)c5=O)CC4)cc3c2C(C)C)cc(C)n1 [Example 138, 3-(4-(2-(2,6-dimethylpyridin-4-yl)-3-isopropyl-1H-indol-5-yl)piperidine-1-carbonyl)-1,6-dimethylpyridin-2(1H)-one] was tested. Which IC50 [1, 4] did it give?
A: 0.0076 µM

Q: What about the IC50 [2, 5] of the same molecule?
A: 0.107 µM

Q: For Cc1cc(-c2[nH]c3ccc(C4CCN(C(=O)CN5CCC(C)CC5)CC4)cc3c2C(C)C)cc(C)n1 [Example 376, 1-(4-(2-(2,6-dimethylpyridin-4-yl)-3-isopropyl-1H-indol-5-yl)piperidin-1-yl)-2-(4-methylpiperidin-1-yl)ethan-1-one], which IC50 [2, 5] is on record?
A: 0.0209 µM

Q: And the IC50 [3, 6]?
A: 0.628 µM

Q: Cc1cc(-c2[nH]c3ccc(C4CCN(C(=O)C(C)C)CC4)cc3c2C(C)C)cc(C)n1 [Example 202, 1-(4-(2-(2,6-dimethylpyridin-4-yl)-3-isopropyl-1H-indol-5-yl)piperidin-1-yl)-2-methylpropan-1-one] was tested. Which IC50 [2, 5] did it give?
A: 0.327 µM

Q: What about the IC50 [3, 6] of the same molecule?
A: 39.9 µM

Q: COCCN(C)C(=O)CN1CCC(c2ccc3[nH]c(-c4cc(C)nc(C)c4)c(C(C)C)c3c2)CC1 [Example 254, 2-(4-(2-(2,6-dimethylpyridin-4-yl)-3-isopropyl-1H-indol-5-yl)piperidin-1-yl)-N-(2-methoxyethyl)-N-methylacetamide] was tested. Which IC50 [1, 4] did it give?
A: 0.009 µM

Q: What about the IC50 [2, 7] of the same molecule?
A: 0.0176 µM

Q: For Cc1cc(-c2[nH]c3ccc(C4CCN(C(=O)C5(C)COC5)CC4)cc3c2C(C)C)cc(C)n1 [Example 207, (4-(2-(2,6-dimethylpyridin-4-yl)-3-isopropyl-1H-indol-5-yl)piperidin-1-yl)(3-methyloxetan-3-yl)methanone], which IC50 [2, 5] is on record?
A: 0.0904 µM

Q: What about the IC50 [3, 6] of the same molecule?
A: 47.4 µM

Q: How did the IC50 [1, 4] turn out when Cc1cc(-c2[nH]c3ccc(C4CCN(C(=O)c5cccnc5)CC4)cc3c2C(C)C)cc(C)n1 [Example 113, (4-(2-(2,6-dimethylpyridin-4-yl)-3-isopropyl-1H-indol-5-yl)piperidin-1-yl)(pyridin-3-yl)methanone] was run?
A: 0.0059 µM

Q: And the IC50 [2, 5]?
A: 0.0786 µM

Q: For Cc1cc(-c2[nH]c3ccc(C4CCN(C(=O)CC5C(=O)N(C)C(=O)N5C)CC4)cc3c2C(C)C)cc(C)n1 (centres unmarked) [Example 122, 5-(2-(4-(2-(2,6-dimethylpyridin-4-yl)-3-isopropyl-1H-indol-5-yl)piperidin-1-yl)-2-oxoethyl)-1,3-dimethylimidazolidine-2,4-dione], which IC50 [1, 4] is on record?
A: 0.0067 µM

Q: And the IC50 [2, 5]?
A: 0.0444 µM

Q: What does the source list for Cc1nccc(-c2[nH]c3ccc(C4CCN(Cc5cnc[nH]5)CC4)cc3c2C(C)C)c1N [Example 745, 4-(5-(1-((1H-imidazol-5-yl)methyl)piperidin-4-yl)-3-isopropyl-1H-indol-2-yl)-2-methylpyridin-3-amine]?
A: IC50 [1, 4]: 0.0999 µM; IC50 [2, 7]: 0.13 µM

Q: How did the IC50 [1, 4] turn out when Cc1nc(C)c(C)c(-c2[nH]c3ccc(C4CCNCC4)cc3c2C(C)C)c1C [Example 43, 3-isopropyl-5-(piperidin-4-yl)-2-(2,3,5,6-tetramethylpyridin-4-yl)-1H-indole] was run?
A: 0.278 µM

Q: What about the IC50 [3, 6] of the same molecule?
A: 0.546 µM

Q: Which IC50 [1, 4] does the source give for CCNc1cc(-c2[nH]c3ccc(C4CCN(C5CCN(CC(C)C)CC5)CC4)cc3c2CC)ccn1 [Example 772, N-ethyl-4-(3-ethyl-5-(1′-isobutyl-[1,4′-bipiperidin]-4-yl)-1H-indol-2-yl)pyridin-2-amine] here?
A: 9.85 µM

Q: And the IC50 [3, 6]?
A: 0.205 µM

Q: With COC(=O)c1c(-c2cc(C)nc(C)c2)[nH]c2ccc(C3CCNCC3)cc12 [Example 495, methyl 2-(2,6-dimethylpyridin-4-yl)-5-(piperidin-4-yl)-1H-indole-3-carboxylate] as the molecule, how does the IC50 [2, 5] read?
A: 12.5 µM

Q: What about the IC50 [3, 6] of the same molecule?
A: 0.144 µM
